Measured values taken from patent publication US20120291148A1, “TRANSGENIC PLANTS WITH ENHANCED CHARACTERISTICS” (Miami University, priority 2007, published 2012).
Where two headings read alike, the source gives them in different places.

How the values were obtained:
AtETHE1 [1] = target: T1, AtETHE1 (Arabidopsis thaliana, UniProt Q9C8L4, S50M); test: Inhibition of AtETHE1 p-nitrophenyl acetate hydrolysis by metal chelator; assay type: biochemical; conditions: presence of metal chelator
T1 construct: made in house
Protocol: (§1) Enzymatic assays were conducted at 25° C. in 10 mM MOPS, pH 7.2, on a Cary IE UV-Vis spectrophotometer. A series of thioesters of glutathione were synthesized as previously described (L. Uotila, Meth. Enzymol. 77 (1981) 424-430), and all other substrates were purchased commercially. The hydrolysis of S-D-lactoylglutathione (Sigma), S-D-acetylglutathione, S-D-acetoacetylglutathione, S-D-formylglutathione, S-D-glyocosylgutathione or S-D-pyruvylglutathione was monitored at 240 nm. S-D-mandeloylglutathione hydrolysis was monitored at 263 nm (L. Uotila, Meth. Enzymol. 77 (1981) 424-430). Hydrolysis of p-nitrophenyl phosphate (Sigma), p-nitrophenyl sulfate (Sigma), and p-nitrophenyl acetate (Sigma) was monitored at 400 nm (see R. A. Anderson, et al., Proc. Natl. Acad. Sci. 72 (1975) 2989-2993; J. J. Brandt, et al., Anal. Biochem. 272 (1999) 94-99; J. M. Armstrong, et al., J. Biol. Chem. 241 (1966) 5137-5149). The hydrolysis of L-alanine-p-nitroanilide (Sigma) was measured at 404 nm (J. J. Brandt, et al., Anal. Biochem. 272 (1999) 94-99). Ala-ala-ala-p-nitroanilide (Sigma) and y-L-Glu-p-nitroanalide (Sigma) hydrolysis was monitored at 410 nm. Hydrolysis of benzoylglycyl-L-phenylalanine was monitored at 254 nm (J. F. Sabastian, et al., Can. J. Biochem. 56 (1978) 329-333). […]

[2] = test system: AtETHE1 transcript levels; test: RT-PCR of AtETHE1 transcript levels under abiotic stress (Example 5); assay type: in vivo, Arabidopsis Columbia; conditions: 10 μM ABA 3 hours; 150 mM NaCl or 300 mM Mannitol 24 hours
Protocol: Stress studies were performed on wild-type Arabidopsis Columbia plants grown hydroponically. Seeds were germinated on Rockwool (GrodanHP, Agro Dynamics Inc., East Brunswick, N.J., USA) suspended above Hoagland's solution (Cowgilland & Milazzo, (1989) The Culturing and Testing of Two Species of Duckweed. In W J Adams, G A Chapman, eds, Aquatic Toxicology and Hazard Assessment Vol 12. American Society for Testing and Materials, Philadelphia, Pa., pp 379-391) and grown in a growth chamber maintained at 23° C. with 16 hour light, 8 hour dark cycles. Plants stressed with abscisic acid (ABA), were grown hydroponically for 7 days and then stressed for 3 hours with 10 μM ABA. Plants were grown hydroponically for 18 days prior to treatment with either 150 mM NaCl or 300 mM Mannitol for 24 hours.
AtETHE1 RNA levels were determined by RT-PCR on total RNA (1 μg) isolated from cotyledon, root, stem, leaf, silique, and bud, and seedlings subjected to abiotic stresses. AtETHE1 cDNA was synthesized using a Thermoscript RT-PCR kit, followed by 25 cycles of PCR using the primer pair 2-3-5′ and 2-3-2. ACT8 was used as a control (An, et al., (1996) Plant J 10: 107-121).

AtETHE1 expression = test: RT-PCR of AtETHE1 mRNA in hydroponic plants under abiotic stress (Example 4); assay type: in vivo, Arabidopsis Columbia; conditions: 10 uM ABA 3 hours; 150 mM NaCl 12 hours (roots); 300 mM Mannitol 24 hours
Protocol: Stress studies were performed on Wild-type Arabidopsis Columbia grown hydroponically. Seeds were germinated on Rockwool (GrodanHP, Agro Dynamics Inc., East Brunswick, N.J., USA) suspended above Hoagland's solution and grown in a growth chamber maintained at 23° C. and 16 hour light, 8 hour dark cycles. For the plants stressed with abscisic acid (ABA), seedlings were grown hydroponically for 7 days and then stressed for 3 hours with 10 uM ABA. Plants were grown hydroponically for 18 days for stresses with NaCl and Mannitol. Plants were either stressed with 150 mM NaCl for 12 hours or stressed for 24 hours with 300 mM Mannitol. Plant material, roots only for NaCl stress, was immediately ground in liquid N2 and stored in the −80° C. until needed for RNA isolation.
AtETHE1 RNA levels were determined using RT-PCR on total RNA isolated from either whole plants (ABA, Mannitol treated) or from the roots (NaCl treated). […] ACT8 was used as a control.

AtETHE1 [3] = target: T1, AtETHE1; test: Steady-state kinetic test of candidate substrates with AtETHE1; assay type: biochemical; conditions: steady-state kinetic studies after screening hit
Protocol: as §1

[4] = test system: Arabidopsis seedlings (root growth); test: Seedling growth on MS plates with exogenous metabolites; assay type: in vivo, Arabidopsis thaliana; conditions: for sensitivity of AtETHE256-OE plants compared with wild-type plants: 0 mM to 2 mM metabolite on MS plates; for inhibition at 1500 µM: Arabidopsis thaliana, 168 h, 1.5 mM valine, 7 days of growth
Protocol: Studies in Arabidopsis thaliana Heyhn were performed on the Wassilewskija (WS) ecotype. Seeds were vernalized at 4° C. for 48 hours prior to being placed in a growth chamber. For measurement of toxicity and germination rates, seeds were surfaced sterilized with 70% ethanol for 30 seconds followed by 10% bleach for 30 minutes, rinsed three times with sterile deionized water and plated on half strength Murashige and Skoog (MS) plates solidified with 0.6% Gelrite and supplemented with 1.5% sucrose, pH 6.0. Plates were vernalized for four days at 4° C. and then placed in a controlled growth chamber at 23° C. on a 16:8 light/dark cycle.
Wild-type Arabidopsis (Ws), AtETHE1256-OE, and AtETHE1294-OE seeds were sown onto half-strength MS plates with 0 mM to 2 mM valine, propionate, ethylmalonic acid, butyric acid, or crotonic acid (all purchased from Sigma). Neutralized, filter-sterilized metabolites were added after the medium was autoclaved. Once toxicity levels for wild-type seeds were obtained, wild-type, AtETHE1256-OE, and AtETHE1294-OE seeds were plated together on the same plates. Root lengths and cotyledon growth from 100 plants per stress were measured and compared after 7 days of growth.

plants = test: Preliminary studies of methylmalonate toxicity in plants; assay type: in vivo
[5] = recombinant rat carbonic anhydrase III, G. Kim et al. 2000; cited from earlier work
[6] = Thioesterase activity of AtETHE1 with SLG and other glutathione thioesters; assay type: biochemical, Arabidopsis thaliana
Protocol: as §1

[7] = Steady-state hydrolysis of p-nitrophenyl acetate by purified AtETHE1; assay type: biochemical, Arabidopsis thaliana; conditions: substrate p-nitrophenyl acetate; 25° C., 10 mM MOPS pH 7.2
Protocol: as §1

c1cnc2c(c1)ccc1cccnc12 [1,10-o-phenanthroline]
effect on AtETHE1 activity towards p-nitrophenyl acetate (AtETHE1 [1]): inhibited

CC1=CC(=O)CC(C)(C)[C@@]1(O)/C=C/C(C)=C\C(=O)O [ABA, abscisic acid]
increase in AtETHE1 transcript levels [2]: approximately two fold increases | fold increase of AtETHE1 expression versus control (AtETHE1 expression): 1.8 fold

N[C@@H](CCC(=O)Nc1ccc([N+](=O)[O-])cc1)C(=O)O [Glu-pNA, y-L-Glu-p-nitroanalide]
substrate for AtETHE1 (AtETHE1 [3]): not to be substrates

[Cl-].[Na+] [NaCl]
increase in AtETHE1 transcript levels [2]: approximately two fold increases | fold increase of AtETHE1 expression versus control (AtETHE1 expression): 2.1 fold

CCCC(=O)O [butyric acid]
sensitivity of AtETHE256-OE plants compared with wild-type plants [4]: same sensitivity

C/C=C/C(=O)O [crotonic acid]
sensitivity of AtETHE256-OE plants compared with wild-type plants [4]: same sensitivity

CCC(C(=O)O)C(=O)O [ethylmalonic acid]
sensitivity of AtETHE256-OE plants compared with wild-type plants [4]: same sensitivity

OC[C@@H](O)[C@@H](O)[C@H](O)[C@H](O)CO [mannitol]
increase in AtETHE1 transcript levels [2]: approximately 2.5 fold | fold increase of AtETHE1 expression versus control (AtETHE1 expression): 2.6 fold

CC(C(=O)O)C(=O)O [methylmalonate]
toxicity in plants (plants): toxic in plants

CCC(=O)O [propionate]
sensitivity of AtETHE256-OE plants compared with wild-type plants [4]: same sensitivity

CC(C)[C@H](N)C(=O)O [valine]
inhibition at 1500 µM ([4]; AtETHE1256-OE plants, read-out: inhibition of growth): ~40% | inhibition at 1500 µM ([4]; wild-type plants, read-out: inhibition of root growth): ~80%

Ala-ala-ala-p-nitroanilide [Ala-Ala-Ala-pNA]
substrate for AtETHE1 (AtETHE1 [3]): not to be substrates

B1: rat carbonic anhydrase III: recombinant rat carbonic anhydrase III, literature comparator for esterase activity (protein, UniProt P14141 2-260, looked up)
Carbonic anhydrase 3: AKEWGYASHNGPEHWHELYPIAKGDNQSPIELHTKDIRHDPSLQPWSVSYDPGSAKTILNNGKTCRVVFDDTFDRSMLRGGPLSGPYRLRQFHLHWGSSDDHGSEHTVDGVKYAAELHLVHWNPKYNTFGEALKQPDGIAVVGIFLKIGREKGEFQILLDALDKIKTKGKEAPFNHFDPSCLFPACRDYWTYHGSFTTPPCEECIVWLLLKEPMTVSSDQMAKLRSLFASAENEPPVPLVGNWRPPQPIKGRVVRASFK
esterase activity with p-nitrophenyl acetate [5]: 25.8 nmols/min/mg

B2: AtETHE1: Arabidopsis thaliana ETHE1 polypeptide, recombinant, purified from E. coli; mononuclear Fe(II) β-lactamase fold protein (protein)
chain: MKLLFRQLFENESSTFTYLLADVSHPDKPALLIDPVDKTVDRDLKLIDELGLKLIYAMNTHVHADHVTGTGLLKTKLPGVKSVISKASGSKADLFLEPGDKVSIGDIYLEVRATPGHTAGCVTYVTGEGADQPQPRMAFTGDAVLIRGCGRTDFQEGSSDQLYESVHSQIFTLPKDTLIYPAHDYKGFEVSTVGEEMQHNPRLTKDKETFKTIMSNLNLSYPKMIDVAVPANMVCGLQDVPSQAN
enzymatic activity towards SLG ([6]; Example 5, over-expressed purified AtETHE1): no enzymatic activity | hydrolysis of glutathione thioesters ([6]; as-isolated and after incubation with excess iron, SLG and other thioester derivatives): did not hydrolyze any of the glutathione thioesters | activity against p-NPA [7]: 2.02±0.46 nmols/min/mg of enzyme
